14 cell lines from the supplement of paper PMC10307832 can be followed below.

Compound in the experiment “Serdemetan + Foretinib”: c1ccc2c(CCNc3ccc(Nc4ccncc4)cc3)c[nH]c2c1 [Serdemetan] + COc1cc2c(Oc3ccc(NC(=O)C4(C(=O)Nc5ccc(F)cc5)CC4)cc3F)ccnc2cc1OCCCN1CCOCC1 [Foretinib] (partner 0.25 µM)
The experiment is described as follows: relative viability (nuclei count vs DMSO), 5 days (fraction); higher = more cells survive. In short, it runs like this:
(§1)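 Lung cancer cell lines in 1536-well plates were dosed by pin tool the day after seeding, either with one drug alone or with a fixed anchor-drug dose plus five library-drug doses (not always all listed) in √10 steps. After 5 days, cells were fixed and their nuclei stained in one step (final 0.05% Triton X-100, 1% formaldehyde, 1 ug/ml Hoechst), then counted on 4× images. Relative viability is the nuclei count in treated wells divided by that in vehicle wells. Values are medians of duplicate plates.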

Compound in the experiment “Selisistat + Navitoclax”: C1CC(C2=C(C1)C3=C(N2)C=CC(=C3)Cl)C(=O)N [Selisistat] + CC1(C)CCC(c2ccc(Cl)cc2)=C(CN2CCN(c3ccc(C(=O)NS(=O)(=O)c4ccc(N[C@H](CCN5CCOCC5)CSc5ccccc5)c(S(=O)(=O)C(F)(F)F)c4)cc3)CC2)C1 [Navitoclax] (partner 0.5 µM)
The experiment is described as above. In short, it runs like this:
as §1

Turning to SK-LU-1, the relative viability in the experiment with Serdemetan + Foretinib (first compound 0.04 µM) is 0.767; in the experiment with Serdemetan + Foretinib (first compound 0.1265 µM), 0.745; with Serdemetan + Foretinib (first compound 0.4 µM), 0.77; with Serdemetan + Foretinib (first compound 4 µM), 0.61; with Selisistat + Navitoclax (first compound 0.4 µM), 1.08; in the experiment with Selisistat + Navitoclax (first compound 1.265 µM) it was 0.897. In addition, the relative viability was 1.05 with Selisistat + Navitoclax (first compound 4 µM), 0.837 in the experiment with Selisistat + Navitoclax (first compound 12.65 µM) and 0.893 with Selisistat + Navitoclax (first compound 40 µM).
Turning to PC-3 [JPC-3], the relative viability with Serdemetan + Foretinib (first compound 0.04 µM) stood at 0.98; with Serdemetan + Foretinib (first compound 0.1265 µM), 1; with Serdemetan + Foretinib (first compound 0.4 µM), 0.946; in the experiment with Serdemetan + Foretinib (first compound 1.265 µM) it was 1.09; in the experiment with Serdemetan + Foretinib (first compound 4 µM), 1.06; with Selisistat + Navitoclax (first compound 0.4 µM), 0.753. The relative viability in the experiment with Selisistat + Navitoclax (first compound 1.265 µM) was 0.741; with Selisistat + Navitoclax (first compound 4 µM), 0.746; with Selisistat + Navitoclax (first compound 12.65 µM), 0.696; in the experiment with Selisistat + Navitoclax (first compound 40 µM), 0.776.
For the cell line EMC-BAC-2, the relative viability was determined as 0.969 in the experiment with Serdemetan + Foretinib (first compound 0.04 µM); 1.02 with Serdemetan + Foretinib (first compound 0.1265 µM); 1.04 with Serdemetan + Foretinib (first compound 0.4 µM); 0.809 in the experiment with Serdemetan + Foretinib (first compound 1.265 µM); 0.676 with Serdemetan + Foretinib (first compound 4 µM); 1.13 in the experiment with Selisistat + Navitoclax (first compound 0.4 µM). Moreover, the relative viability in the experiment with Selisistat + Navitoclax (first compound 1.265 µM) is 1.09; with Selisistat + Navitoclax (first compound 4 µM), 1.07; with Selisistat + Navitoclax (first compound 12.65 µM), 1.15; in the experiment with Selisistat + Navitoclax (first compound 40 µM), 1.2.
In the case of LK-2, the relative viability with Serdemetan + Foretinib (first compound 0.04 µM) is 1.29; with Serdemetan + Foretinib (first compound 0.1265 µM), 1.13; with Serdemetan + Foretinib (first compound 0.4 µM) it was 1.47; with Serdemetan + Foretinib (first compound 1.265 µM) it was 1.16; with Serdemetan + Foretinib (first compound 4 µM), 0.41; with Selisistat + Navitoclax (first compound 0.4 µM), 1.01. Further, the relative viability worked out at 0.746 with Selisistat + Navitoclax (first compound 1.265 µM), 0.954 with Selisistat + Navitoclax (first compound 4 µM), 0.847 in the experiment with Selisistat + Navitoclax (first compound 12.65 µM) and 1.04 with Selisistat + Navitoclax (first compound 40 µM).
As for NCI-H2126, the relative viability in the experiment with Serdemetan + Foretinib (first compound 0.04 µM) was 1.23; with Serdemetan + Foretinib (first compound 0.1265 µM) it was 1.13; with Serdemetan + Foretinib (first compound 0.4 µM), 1.03; in the experiment with Serdemetan + Foretinib (first compound 1.265 µM) it was 1.01; in the experiment with Serdemetan + Foretinib (first compound 4 µM), 1.03; in the experiment with Selisistat + Navitoclax (first compound 0.4 µM), 0.888. Also, the relative viability in the experiment with Selisistat + Navitoclax (first compound 1.265 µM) was found to be 0.837; in the experiment with Selisistat + Navitoclax (first compound 4 µM), 0.829; with Selisistat + Navitoclax (first compound 12.65 µM), 0.899; with Selisistat + Navitoclax (first compound 40 µM), 0.913.
For the cell line NCI-H3122, the relative viability in the experiment with Serdemetan + Foretinib (first compound 0.04 µM) stood at 0.992; in the experiment with Serdemetan + Foretinib (first compound 0.1265 µM) it was 0.932; with Serdemetan + Foretinib (first compound 0.4 µM), 0.972; with Serdemetan + Foretinib (first compound 4 µM) it was 1.01; with Selisistat + Navitoclax (first compound 0.4 µM), 1.01; with Selisistat + Navitoclax (first compound 1.265 µM) it was 1.02. Besides, the relative viability with Selisistat + Navitoclax (first compound 4 µM) worked out at 0.935; with Selisistat + Navitoclax (first compound 12.65 µM), 1.04; with Selisistat + Navitoclax (first compound 40 µM), 0.961.
Consider NCI-H1975, for which the relative viability with Serdemetan + Foretinib (first compound 0.04 µM) was 0.866; in the experiment with Serdemetan + Foretinib (first compound 0.1265 µM), 0.849; in the experiment with Serdemetan + Foretinib (first compound 0.4 µM) it was 0.982; with Serdemetan + Foretinib (first compound 4 µM) it was 0.987; with Selisistat + Navitoclax (first compound 0.4 µM), 1.08; in the experiment with Selisistat + Navitoclax (first compound 1.265 µM), 0.913. In addition, the relative viability with Selisistat + Navitoclax (first compound 4 µM) came to 1.05; in the experiment with Selisistat + Navitoclax (first compound 12.65 µM), 0.982; with Selisistat + Navitoclax (first compound 40 µM), 0.976.
As to NCI-H1944, the relative viability with Serdemetan + Foretinib (first compound 0.04 µM) was 0.832; in the experiment with Serdemetan + Foretinib (first compound 0.1265 µM), 0.836; in the experiment with Serdemetan + Foretinib (first compound 0.4 µM), 0.828; with Serdemetan + Foretinib (first compound 1.265 µM), 0.406; with Serdemetan + Foretinib (first compound 4 µM) it was 0.392; in the experiment with Selisistat + Navitoclax (first compound 0.4 µM), 1.1. The relative viability in the experiment with Selisistat + Navitoclax (first compound 1.265 µM) is 0.998; with Selisistat + Navitoclax (first compound 12.65 µM) it was 1.04; with Selisistat + Navitoclax (first compound 40 µM), 0.927.
Take LU99A: the relative viability with Serdemetan + Foretinib (first compound 0.04 µM) came to 0.881; with Serdemetan + Foretinib (first compound 0.1265 µM) it was 0.702; with Serdemetan + Foretinib (first compound 0.4 µM) it was 0.487; in the experiment with Serdemetan + Foretinib (first compound 1.265 µM) it was 0.245; in the experiment with Serdemetan + Foretinib (first compound 4 µM), 0.223; with Selisistat + Navitoclax (first compound 0.4 µM), 0.797. Besides, the relative viability in the experiment with Selisistat + Navitoclax (first compound 1.265 µM) was 0.864; in the experiment with Selisistat + Navitoclax (first compound 4 µM), 0.864; with Selisistat + Navitoclax (first compound 12.65 µM) it was 0.915; in the experiment with Selisistat + Navitoclax (first compound 40 µM), 0.966.
SW 1573: the relative viability came to 0.898 with Serdemetan + Foretinib (first compound 0.04 µM); 0.815 in the experiment with Serdemetan + Foretinib (first compound 0.1265 µM); 0.877 with Serdemetan + Foretinib (first compound 0.4 µM); 0.668 in the experiment with Serdemetan + Foretinib (first compound 1.265 µM); 0.422 with Serdemetan + Foretinib (first compound 4 µM); 0.997 with Selisistat + Navitoclax (first compound 0.4 µM). The relative viability in the experiment with Selisistat + Navitoclax (first compound 1.265 µM) stood at 0.781; in the experiment with Selisistat + Navitoclax (first compound 4 µM), 0.93; with Selisistat + Navitoclax (first compound 12.65 µM), 1.15; with Selisistat + Navitoclax (first compound 40 µM) it was 0.934.
On to NCI-H2347, for which the relative viability with Serdemetan + Foretinib (first compound 0.04 µM) is 1.08; in the experiment with Serdemetan + Foretinib (first compound 0.1265 µM), 0.831; in the experiment with Serdemetan + Foretinib (first compound 0.4 µM), 0.89; with Serdemetan + Foretinib (first compound 1.265 µM), 0.954; in the experiment with Serdemetan + Foretinib (first compound 4 µM) it was 0.604; with Selisistat + Navitoclax (first compound 0.4 µM) it was 0.846. Further, the relative viability in the experiment with Selisistat + Navitoclax (first compound 1.265 µM) turned out to be 0.847; with Selisistat + Navitoclax (first compound 4 µM) it was 0.588; in the experiment with Selisistat + Navitoclax (first compound 12.65 µM) it was 0.792; in the experiment with Selisistat + Navitoclax (first compound 40 µM) it was 0.853.
For the cell line NCI-H2009, the relative viability in the experiment with Serdemetan + Foretinib (first compound 0.04 µM) was found to be 1.18; with Serdemetan + Foretinib (first compound 0.1265 µM), 1.14; with Serdemetan + Foretinib (first compound 0.4 µM) it was 1.16; with Serdemetan + Foretinib (first compound 1.265 µM), 1.14; with Serdemetan + Foretinib (first compound 4 µM) it was 0.887; with Selisistat + Navitoclax (first compound 0.4 µM) it was 1.18. Also, the relative viability in the experiment with Selisistat + Navitoclax (first compound 1.265 µM) was 1.15; in the experiment with Selisistat + Navitoclax (first compound 4 µM) it was 1.19; in the experiment with Selisistat + Navitoclax (first compound 12.65 µM) it was 1.14; with Selisistat + Navitoclax (first compound 40 µM), 1.1.
HCC-15: the relative viability stood at 1 in the experiment with Serdemetan + Foretinib (first compound 0.04 µM); 0.993 in the experiment with Serdemetan + Foretinib (first compound 0.1265 µM); 0.944 with Serdemetan + Foretinib (first compound 0.4 µM); 0.854 in the experiment with Serdemetan + Foretinib (first compound 1.265 µM); 0.707 with Serdemetan + Foretinib (first compound 4 µM); 0.778 with Selisistat + Navitoclax (first compound 0.4 µM). The relative viability was found to be 0.737 with Selisistat + Navitoclax (first compound 1.265 µM), 0.756 with Selisistat + Navitoclax (first compound 12.65 µM) and 0.742 with Selisistat + Navitoclax (first compound 40 µM).
For the cell line HCC-44, the relative viability in the experiment with Selisistat + Navitoclax (first compound 0.4 µM) amounted to 1.03; in the experiment with Selisistat + Navitoclax (first compound 1.265 µM), 0.955; with Selisistat + Navitoclax (first compound 4 µM), 0.911; with Selisistat + Navitoclax (first compound 12.65 µM) it was 0.997; in the experiment with Selisistat + Navitoclax (first compound 40 µM), 1.02.
